# Results reported in ChEMBL document CHEMBL5724914, “Linking interpersonal differences in gut microbiota composition and drug biotransformation activity” (2024).
# Assay: (§1) The drug is tested on Z-002 corresponding to rabbit gut metagenome with ENA study accession number: PRJEB37062 and ENA sample accession number: ERS12561802 for biotransformation under anaerobic condition. The drug concentrations were measured over 9 timepoints collected between 0 and 24 hours of incubation by liquid-chromatography-coupled mass spectrometry (LC–MS)
# Conditions: 2 µM
# Further: call rule not given here.
row,Bacterial Biotransformation,SMILES
1,Compound NOT metabolized,CC[C@H](C)C(=O)O[C@H]1C[C@@H](C)C=C2C=C[C@H](C)[C@H](CC[C@@H]3C[C@@H](O)CC(=O)O3)[C@H]21 [LOVASTATIN]
2,Compound metabolized,Cc1cn([C@H]2C[C@H](N=[N+]=[N-])[C@@H](CO)O2)c(=O)[nH]c1=O [ZIDOVUDINE]

# Assay: as §1, with “WLS-010” for “Z-002”, “human” for “rabbit”, “ERS12561743” for “ERS12561802”
# Conditions: 2 µM
row,Bacterial Biotransformation,SMILES
1,Compound NOT metabolized,CC[C@H](C)C(=O)O[C@H]1C[C@@H](C)C=C2C=C[C@H](C)[C@H](CC[C@@H]3C[C@@H](O)CC(=O)O3)[C@H]21 [LOVASTATIN]
2,Compound metabolized,Cc1cn([C@H]2C[C@H](N=[N+]=[N-])[C@@H](CO)O2)c(=O)[nH]c1=O [ZIDOVUDINE]

# Assay: as §1, with “Z-010” for “Z-002”, “to” for “to rabbit gut”, “ERS12561810” for “ERS12561802”
# Conditions: 2 µM
row,Bacterial Biotransformation,SMILES
1,Compound NOT metabolized,CC[C@H](C)C(=O)O[C@H]1C[C@@H](C)C=C2C=C[C@H](C)[C@H](CC[C@@H]3C[C@@H](O)CC(=O)O3)[C@H]21 [LOVASTATIN]
2,Compound NOT metabolized,Cc1cn([C@H]2C[C@H](N=[N+]=[N-])[C@@H](CO)O2)c(=O)[nH]c1=O [ZIDOVUDINE]

# Conditions: human gut metagenome, 24 h, 2 µM
row,Bacterial Biotransformation,SMILES
1,Compound NOT metabolized,CC[C@H](C)C(=O)O[C@H]1C[C@@H](C)C=C2C=C[C@H](C)[C@H](CC[C@@H]3C[C@@H](O)CC(=O)O3)[C@H]21 [LOVASTATIN]
2,Compound metabolized,Cc1cn([C@H]2C[C@H](N=[N+]=[N-])[C@@H](CO)O2)c(=O)[nH]c1=O [ZIDOVUDINE]

# Conditions: human gut metagenome, 24 h, 2 µM
# Remark: another data set of the same source
row,Bacterial Biotransformation,SMILES
1,Compound NOT metabolized,Cc1cn([C@H]2C[C@H](N=[N+]=[N-])[C@@H](CO)O2)c(=O)[nH]c1=O [ZIDOVUDINE]

# Assay: as §1, with “Z-012” for “Z-002”, “to” for “to rabbit gut”, “ERS12561812” for “ERS12561802”
# Conditions: 2 µM
row,Bacterial Biotransformation,SMILES
1,Compound NOT metabolized,CC[C@H](C)C(=O)O[C@H]1C[C@@H](C)C=C2C=C[C@H](C)[C@H](CC[C@@H]3C[C@@H](O)CC(=O)O3)[C@H]21 [LOVASTATIN]
2,Compound metabolized,Cc1cn([C@H]2C[C@H](N=[N+]=[N-])[C@@H](CO)O2)c(=O)[nH]c1=O [ZIDOVUDINE]

# Assay: as §1, with “WLS-240” for “Z-002”, “human” for “rabbit”, “ERS12561773” for “ERS12561802”
# Conditions: 2 µM
row,Bacterial Biotransformation,SMILES
1,Compound NOT metabolized,CC[C@H](C)C(=O)O[C@H]1C[C@@H](C)C=C2C=C[C@H](C)[C@H](CC[C@@H]3C[C@@H](O)CC(=O)O3)[C@H]21 [LOVASTATIN]
2,Compound NOT metabolized,Cc1cn([C@H]2C[C@H](N=[N+]=[N-])[C@@H](CO)O2)c(=O)[nH]c1=O [ZIDOVUDINE]

# Assay: as §1, with “WLS-038” for “Z-002”, “human” for “rabbit”, “ERS12561745” for “ERS12561802”
# Conditions: 2 µM
row,Bacterial Biotransformation,SMILES
1,Compound NOT metabolized,CC[C@H](C)C(=O)O[C@H]1C[C@@H](C)C=C2C=C[C@H](C)[C@H](CC[C@@H]3C[C@@H](O)CC(=O)O3)[C@H]21 [LOVASTATIN]
2,Compound NOT metabolized,Cc1cn([C@H]2C[C@H](N=[N+]=[N-])[C@@H](CO)O2)c(=O)[nH]c1=O [ZIDOVUDINE]

# Assay: as §1, with “Z-026” for “Z-002”, “to” for “to rabbit gut”, “ERS12561825” for “ERS12561802”
# Conditions: 2 µM
row,Bacterial Biotransformation,SMILES
1,Compound metabolized,CC[C@H](C)C(=O)O[C@H]1C[C@@H](C)C=C2C=C[C@H](C)[C@H](CC[C@@H]3C[C@@H](O)CC(=O)O3)[C@H]21 [LOVASTATIN]
2,Compound metabolized,Cc1cn([C@H]2C[C@H](N=[N+]=[N-])[C@@H](CO)O2)c(=O)[nH]c1=O [ZIDOVUDINE]

# Assay: as §1, with “WLS-039” for “Z-002”, “human” for “rabbit”, “ERS12561746” for “ERS12561802”
# Conditions: 2 µM
row,Bacterial Biotransformation,SMILES
1,Compound NOT metabolized,CC[C@H](C)C(=O)O[C@H]1C[C@@H](C)C=C2C=C[C@H](C)[C@H](CC[C@@H]3C[C@@H](O)CC(=O)O3)[C@H]21 [LOVASTATIN]

# Conditions: human gut metagenome, 24 h, 2 µM
# Remark: another data set of the same source
row,Bacterial Biotransformation,SMILES
1,Compound NOT metabolized,CC[C@H](C)C(=O)O[C@H]1C[C@@H](C)C=C2C=C[C@H](C)[C@H](CC[C@@H]3C[C@@H](O)CC(=O)O3)[C@H]21 [LOVASTATIN]
2,Compound NOT metabolized,Cc1cn([C@H]2C[C@H](N=[N+]=[N-])[C@@H](CO)O2)c(=O)[nH]c1=O [ZIDOVUDINE]

# Conditions: human gut metagenome, 24 h, 2 µM
# Remark: another data set of the same source
row,Bacterial Biotransformation,SMILES
1,Compound NOT metabolized,CC[C@H](C)C(=O)O[C@H]1C[C@@H](C)C=C2C=C[C@H](C)[C@H](CC[C@@H]3C[C@@H](O)CC(=O)O3)[C@H]21 [LOVASTATIN]
2,Compound NOT metabolized,Cc1cn([C@H]2C[C@H](N=[N+]=[N-])[C@@H](CO)O2)c(=O)[nH]c1=O [ZIDOVUDINE]

# Assay: as §1, with “WLS-098” for “Z-002”, “human” for “rabbit”, “ERS12561754” for “ERS12561802”
# Conditions: 2 µM
row,Bacterial Biotransformation,SMILES
1,Compound NOT metabolized,CC[C@H](C)C(=O)O[C@H]1C[C@@H](C)C=C2C=C[C@H](C)[C@H](CC[C@@H]3C[C@@H](O)CC(=O)O3)[C@H]21 [LOVASTATIN]
2,Compound NOT metabolized,Cc1cn([C@H]2C[C@H](N=[N+]=[N-])[C@@H](CO)O2)c(=O)[nH]c1=O [ZIDOVUDINE]

# Conditions: human gut metagenome, 24 h, 2 µM
# Remark: another data set of the same source
row,Bacterial Biotransformation,SMILES
1,Compound NOT metabolized,CC[C@H](C)C(=O)O[C@H]1C[C@@H](C)C=C2C=C[C@H](C)[C@H](CC[C@@H]3C[C@@H](O)CC(=O)O3)[C@H]21 [LOVASTATIN]
2,Compound NOT metabolized,Cc1cn([C@H]2C[C@H](N=[N+]=[N-])[C@@H](CO)O2)c(=O)[nH]c1=O [ZIDOVUDINE]

# Assay: as §1, with “WLS-170” for “Z-002”, “human” for “rabbit”, “ERS12561762” for “ERS12561802”
# Conditions: 2 µM
row,Bacterial Biotransformation,SMILES
1,Compound NOT metabolized,CC[C@H](C)C(=O)O[C@H]1C[C@@H](C)C=C2C=C[C@H](C)[C@H](CC[C@@H]3C[C@@H](O)CC(=O)O3)[C@H]21 [LOVASTATIN]
2,Compound NOT metabolized,Cc1cn([C@H]2C[C@H](N=[N+]=[N-])[C@@H](CO)O2)c(=O)[nH]c1=O [ZIDOVUDINE]

# Assay: as §1, with “WLS-027” for “Z-002”, “human” for “rabbit”, “ERS12561744” for “ERS12561802”
# Conditions: 2 µM
row,Bacterial Biotransformation,SMILES
1,Compound NOT metabolized,CC[C@H](C)C(=O)O[C@H]1C[C@@H](C)C=C2C=C[C@H](C)[C@H](CC[C@@H]3C[C@@H](O)CC(=O)O3)[C@H]21 [LOVASTATIN]
2,Compound NOT metabolized,Cc1cn([C@H]2C[C@H](N=[N+]=[N-])[C@@H](CO)O2)c(=O)[nH]c1=O [ZIDOVUDINE]

# Assay: as §1, with “WLS-007” for “Z-002”, “human” for “rabbit”, “ERS12561742” for “ERS12561802”
# Conditions: 2 µM
row,Bacterial Biotransformation,SMILES
1,Compound NOT metabolized,CC[C@H](C)C(=O)O[C@H]1C[C@@H](C)C=C2C=C[C@H](C)[C@H](CC[C@@H]3C[C@@H](O)CC(=O)O3)[C@H]21 [LOVASTATIN]
2,Compound NOT metabolized,Cc1cn([C@H]2C[C@H](N=[N+]=[N-])[C@@H](CO)O2)c(=O)[nH]c1=O [ZIDOVUDINE]

# Conditions: human gut metagenome, 24 h, 2 µM
# Remark: another data set of the same source
row,Bacterial Biotransformation,SMILES
1,Compound NOT metabolized,CC[C@H](C)C(=O)O[C@H]1C[C@@H](C)C=C2C=C[C@H](C)[C@H](CC[C@@H]3C[C@@H](O)CC(=O)O3)[C@H]21 [LOVASTATIN]
2,Compound NOT metabolized,Cc1cn([C@H]2C[C@H](N=[N+]=[N-])[C@@H](CO)O2)c(=O)[nH]c1=O [ZIDOVUDINE]

# Assay: as §1, with “Z-011” for “Z-002”, “mouse” for “rabbit”, “ERS12561811” for “ERS12561802”
# Conditions: 2 µM
row,Bacterial Biotransformation,SMILES
1,Compound metabolized,CC[C@H](C)C(=O)O[C@H]1C[C@@H](C)C=C2C=C[C@H](C)[C@H](CC[C@@H]3C[C@@H](O)CC(=O)O3)[C@H]21 [LOVASTATIN]
2,Compound metabolized,Cc1cn([C@H]2C[C@H](N=[N+]=[N-])[C@@H](CO)O2)c(=O)[nH]c1=O [ZIDOVUDINE]

# Conditions: human gut metagenome, 24 h, 2 µM
# Remark: another data set of the same source
row,Bacterial Biotransformation,SMILES
1,Compound NOT metabolized,CC[C@H](C)C(=O)O[C@H]1C[C@@H](C)C=C2C=C[C@H](C)[C@H](CC[C@@H]3C[C@@H](O)CC(=O)O3)[C@H]21 [LOVASTATIN]
2,Compound NOT metabolized,Cc1cn([C@H]2C[C@H](N=[N+]=[N-])[C@@H](CO)O2)c(=O)[nH]c1=O [ZIDOVUDINE]
